Measurements from patent publication US12691129B2, “Use of carotenoids in the treatment of senescence-related diseases” (ALGAKTIV, S.L., priority 2019, dated 2026).
Where two headings read alike, the source gives them in different places.

What was measured:
[1] = tested on: α-SMA in HSC from cirrhotic rats; assay: α-SMA expression in primary HSC from cirrhotic rats (qPCR, western blot); format: cell-based, rat; settings: 10 μM, vs vehicle; for inhibition of α-SMA transcription: quantitative PCR
Protocol: (§1) To evaluate the effect of amarouciaxanthin A on HSC activation, the immortalized human cell line LX2 was used. Additionally, primary HSC were extracted from cirrhotic rats which had been subjected to carbon tetrachloride inhalation. In both cases, cells were cultured for 24 h before adding the compound. After that, either amarouciaxanthin A at 10 μM or the vehicle (DMSO) was added to the culture. Cells were harvested at 24 and 72 h post treatment and were lysed to analyze fibrotic biomarkers. Gene transcription was determined by quantitative PCR at 24 and 72 h and protein expression by western blotting at 72 h. α-smooth muscle actin (α-SMA) was analyzed in rat HSC. Collagen I al (COL1A1), which is the main component of the extracellular matrix, was analyzed in LX2.

MV-4-11 cells = assay: MTT cytotoxicity assay in MV-4-11 cells; format: cell-based, Human; settings: 6 replicates, read-out: IC50 (μM) (mean ± SD)
Protocol: Human MV-4-11 and PL-21 cell lines were used to evaluate fucoxanthin and amarouciaxanthin A effects in combination with the BCL-2 family inhibitor Navitoclax (ABT-263) and Venetoclax (ABT-199). […] For cytotoxicity determination, MV-4-11 cells and PL-21 cells were plated in 96-well microplates at a density of 10^4 cells/well. After 24 hours, different concentration combinations of Navitoclax or Venetoclax and fucoxanthin or amarouciaxanthin A were added. […] DMSO was used as vehicle control. After this period, 50 μL of SDS 10% were added to the negative control wells (0% viability, 100% mortality). Then, culture media was replaced by fresh media with 10 μL of MTT 5 mg/ml in PBS in each well. […] Next, culture media was removed and 100 μL of extraction buffer (SDS, DSA, acetic acid 2%, pH 4.7) were added to each well. […] Finally, plates were read at 570 nm with the spectrophotometer Multiskan Ascent (MTX Lab systems). The potency of each product was determined through the calculation of IC50 (half maximal inhibitory concentration).

COL1A1 in LX2 cells = assay: COL1A1 expression in LX2 cells (qPCR, western blot); format: cell-based, human; settings: 10 μM, vs vehicle; for inhibition of COL1A1 transcription: quantitative PCR
Protocol: as §1

BJ-11 cells = assay: Senescence associated β-galactosidase (SA-β-Gal) staining in BJ-11 cells; format: cell-based, human
Protocol: (§2) BJ-11 cell line (human primary skin fibroblasts) was cultured in MEM supplemented with 10% FCS plus 2 mM L-glutamine. All cells were cultured at 37° C. in a humidified 5% CO2-atmosphere and were consistently free of mycoplasma, as evaluated by PCR. All passages were performed between 80 and 90% of confluence and with viability greater than 90%.
In order to evaluate the effects of fucoxanthin on senescence, 10^4 BJ-11 cells were seeded in 24-well plates. Cultures were incubated with different concentrations of palbociclib (Palbo) or doxorubicin (Doxo), as senescence inductors, and fucoxanthin (Fuco), as described in Table 6.
Doxorubicin treatments were performed only for 24 hours. After that, doxorubicin was removed and cells were cultured in complete culture medium during the periods of time indicated below. On the other hand, palbociclib was constantly present in the culture medium and added fresh periodically.
Two different approaches were followed: • Approach 1: Fucoxanthin effects on senescence prevention
After 7 days, β-galactosidase activity was determined.
After that, treatment with fucoxanthin was performed for 7 days. At the end of this period […] activity was determined.
After treatments, SA-β-galactosidase staining was used for the determination of senescence-associated β-galactosidase expression in BJ-11 cells. β-galactosidase staining was performed based on manufacturer's recommendations (9860S, Cell Signaling Technology). Growth media was removed from the cells and the plate was rinsed once with PBS. Then, fixative solution was added to each well and cells were allowed to fix for 10-15 min at room temperature. The plate was rinsed twice with PBS before adding β-Galactosidase Staining Solution to each well. Finally, the plate was incubated at 37° C. for 24 h in a dry incubator (no CO2) for preventing changes in pH, which may affect staining results. The amount of cells positive in β-galactosidase activity (stained in blue) was evaluated by manual stained-cell counting.

PL-21 cells = assay: MTT cytotoxicity assay in PL-21 cells; format: cell-based, Human; settings: 72 hours, 6 replicates, read-out: IC50 (μM) (mean ± SD)
Protocol: Human MV-4-11 and PL-21 cell lines were used to evaluate fucoxanthin and amarouciaxanthin A effects in combination with the BCL-2 family inhibitor Navitoclax (ABT-263) and Venetoclax (ABT-199). Cells were cultured in RPMI media supplemented with 10% FCS at 37° C. in a humidified 5% CO2-atmosphere, and were consistently free of mycoplasma, as evaluated by PCR. All passages were performed between 80 and 90% of confluence and with viability above 90%.
For cytotoxicity determination, MV-4-11 cells and PL-21 cells were plated in 96-well microplates at a density of 10^4 cells/well. After 24 hours, different concentration combinations of Navitoclax or Venetoclax and fucoxanthin or amarouciaxanthin A were added. Plates were incubated for 72 hours at 37° C. and 5% CO2. DMSO was used as vehicle control. After this period, 50 μL of SDS 10% were added to the negative control wells (0% viability, 100% mortality). Then, culture media was replaced by fresh media with 10 μL of MTT 5 mg/ml in PBS in each well. Plates were incubated for 4 hours at 37° C. and 5% CO2. Next, culture media was removed and 100 μL of extraction buffer (SDS, DSA, acetic acid 2%, pH 4.7) were added to each well. […] Finally, plates were read at 570 nm with the spectrophotometer Multiskan Ascent (MTX Lab systems). The potency of each product was determined through the calculation of IC50 (half maximal inhibitory concentration).

Sk-Mel-103 cells = assay: MTT cytotoxicity of Navitoclax in Sk-Mel-103 cells after palbociclib/fucoxanthin pretreatment; format: cell-based, human; settings: for IC50: 6 replicates, read-out: IC50 of Navitoclax (μM) (mean ± SD)
Protocol: as §2, with “Sk-Mel-103” for “BJ-11”, “(human” for “(human primary”, “melanoma)” for “fibroblasts)”, “DMEM-high glucose” for “MEM”, “FCS.” for “FCS plus 2 mM L-glutamine.”
10^6 Sk-Mel-103 cells were seeded in 24-well plates. Cultures were incubated with palbociclib (Palbo), as a senescence inductor; fucoxanthin; or a combination of them, as described in Table 4. After 7 days, cultures were treated with different concentrations of the BCL2 inhibitor Navitoclax. The cytotoxicity of each condition was determined through the calculation of IC50 (half maximal inhibitory concentration) by an MTT assay.
For cytotoxicity determination, cells were plated in 96-well microplates at a density of 10^4 cells/well. After the initial treatments described above, different concentrations of Navitoclax were added. Plates were then incubated for 72 hours at 37° C. and 5% CO2. DMSO was used as vehicle control. After this period, 50 μL of SDS 10% were added to the negative control wells (0% viability, 100% mortality). Then, culture media was replaced by fresh media with 10 μL of MTT 5 mg/ml in PBS in each well. Plates were incubated for 4 hours at 37° C. and 5% CO2. Next, culture media was removed and 100 μL of extraction buffer (SDS, DSA, acetic acid 2%, pH 4.7) were added to each well. After incubating plates for 1 hour at 37° C. and 5% CO2, cultures were homogenized. Finally, plates were read at 570 nm with the spectrophotometer Multiskan Ascent (MTX Lab systems). The potency of each product was determined through the calculation of IC50 (half maximal inhibitory concentration).

[2] = tested on: IL-1β, IL-6 and IL-8 secretion by SK-Mel-103 cells; assay: Secreted interleukins (ELISA) in senescent SK-Mel-103 cells; format: cell-based, human; settings: fucoxanthin 4 μM, p value<0.01
Protocol: as §2, with “Sk-Mel-103” for “BJ-11”, “(human” for “(human primary”, “melanoma)” for “fibroblasts)”, “DMEM-high glucose” for “MEM”, “FCS.” for “FCS plus 2 mM L-glutamine.”
10^6 Sk-Mel-103 cells were seeded in 24-well plates. Cultures were incubated with palbociclib or doxorubicin, as senescence inductors; fucoxanthin; or a combination of them, as described in Table 9. After treatments, cells and supernatants were collected by centrifugation and stored at −20° C.
Secretion of IL-1β, IL-6 and IL-8 was quantified in the supernatants by commercial ELISA kits (DY201, DY206, DY208, R&D Systems) following manufacturer's instructions. Obtained values were normalized by total cell protein content in each well at the end of the experiment, quantified by Bradford assay (B6916, Sigma-Aldrich). A second normalization was performed by dividing the secreted interleukin after fucoxanthin incubations by its corresponding control of senescent cells.

[3] = senescence induced with doxorubicin 125 nM, vs senescent cells (FIG. 2)
[4] = senescence induced with palbociclib 1 μM, vs senescent cells (FIG. 1)

Molecule: CC1=CC(=O)CC(C)(C)[C@@]1(O)CC(=O)/C(C)=C/C=C/C(C)=C/C=C/C=C(C)/C=C/C=C(\C)C=C=C1C(C)(C)C[C@H](O)C[C@@]1(C)O [Amarouciaxanthin A, amarouciaxanthin A]
- inhibition of α-SMA transcription ([1]; 24 h): around 80%
- inhibition of α-SMA transcription ([1]; 72 h): around 80%
- reduction of α-SMA expression at the protein level ([1]; 72 h, western blotting): 95%
- IC50 (MV-4-11 cells; 72 hours): 1.45 ± 0.27 µM
- inhibition of COL1A1 transcription (COL1A1 in LX2 cells; 24 h): around 50%
- inhibition of COL1A1 transcription (COL1A1 in LX2 cells; 72 h): around 80%
- reduction of collagen expression (protein) (COL1A1 in LX2 cells; 72 h, western blot): around 95%

Molecule: COc1cccc2c1C(=O)c1c(O)c3c(c(O)c1C2=O)C[C@@](O)(C(=O)CO)C[C@@H]3O[C@H]1C[C@H](N)[C@H](O)[C@H](C)O1 [Doxorubicin, doxorubicin, reference compound]
- Percentage of cells positive in β-galactosidase activity (BJ-11 cells; Approach 1 (prevention), senescent cells: doxorubicin 25 nM (24 hours) alone, 7 days): >80%
- Percentage of cells positive in β-galactosidase activity (BJ-11 cells; Approach 2 (reversion), senescent cells: doxorubicin 25 nM alone): >80%

Molecule: CC1(C)CCC(c2ccc(Cl)cc2)=C(CN2CCN(c3ccc(C(=O)NS(=O)(=O)c4ccc(N[C@H](CCN5CCOCC5)CSc5ccccc5)c(S(=O)(=O)C(F)(F)F)c4)cc3)CC2)C1 [Navitoclax, navitoclax]
- IC50 (PL-21 cells): 1.22 ± 0.12 µM
- IC50 (MV-4-11 cells; 72 hours): 0.14 ± 0.01 µM
- IC50 (Sk-Mel-103 cells; Sk-Mel-103 control cells (no pretreatment)): 8.02 ± 1.31 µM
- IC50 (Sk-Mel-103 cells; Sk-Mel-103 control cells + fucoxanthin 4 μM pretreatment 7 days): 4.79 ± 0.911 µM
- IC50 (Sk-Mel-103 cells; Sk-Mel-103 senescent cells (palbociclib 1 μM) + fucoxanthin 4 μM pretreatment 7 days): 0.055 ± 0.005 µM
- IC50 (Sk-Mel-103 cells; Sk-Mel-103 senescent cells (palbociclib 1 μM, 7 days)): 0.136 ± 0.012 µM

Molecule: CC(=O)c1c(C)c2cnc(Nc3ccc(N4CCNCC4)cn3)nc2n(C2CCCC2)c1=O [Palbociclib, palbociclib, reference compound]
- Percentage of cells positive in β-galactosidase activity (BJ-11 cells; Approach 1 (prevention), senescent cells: palbociclib 1 μM alone, 7 days): >98%
- Percentage of cells positive in β-galactosidase activity (BJ-11 cells; Approach 2 (reversion), senescent cells: palbociclib 1 μM alone): >95%

Molecule: CC1(C)CCC(c2ccc(Cl)cc2)=C(CN2CCN(c3ccc(C(=O)NS(=O)(=O)c4ccc(NCC5CCOCC5)c([N+](=O)[O-])c4)c(Oc4cnc5[nH]ccc5c4)c3)CC2)C1 [Venetoclax, venetoclax, reference compound]
- IC50 (MV-4-11 cells; Homo sapiens, MV4-11, 72 hours): 0.0048 µM

Molecule: fucoxanthin
- IC50 (PL-21 cells): 10.5 ± 1.55 µM
- IC50 (MV-4-11 cells; 72 hours): 1.34 ± 0.07 µM
- secretion of IL-1β [2, 3]: significantly decreased
- secretion of IL-6 [2, 3]: significantly decreased
- secretion of IL-8 [2, 3]: significantly decreased
- secretion of IL-1β [2, 4]: significantly decreased
- secretion of IL-6 [2, 4]: significantly decreased
- secretion of IL-8 [2, 4]: significantly decreased
- effect of fucoxanthin pretreatment on senolytic activity of Navitoclax (Sk-Mel-103 cells; Sk-Mel-103, fucoxanthin 4 μM pretreatment 7 days, summary of Table 5): increased the senolytic activity of Navitoclax
- Percentage of cells positive in β-galactosidase activity (BJ-11 cells; Approach 1 (prevention), fucoxanthin 10 μM simultaneously with doxorubicin 25 nM, 7 days): <5%
- Percentage of cells positive in β-galactosidase activity (BJ-11 cells; Approach 1 (prevention), fucoxanthin 10 μM simultaneously with palbociclib 1 μM, 7 days): <5%
- Percentage of cells positive in β-galactosidase activity (BJ-11 cells; Approach 2 (reversion), doxorubicin 25 nM, 7 days, then fucoxanthin 10 μM for 7 days): <5%
- Percentage of cells positive in β-galactosidase activity (BJ-11 cells; Approach 2 (reversion), palbociclib 1 μM for 7 days, then fucoxanthin 10 μM for 7 days): <5%
- percentage of senescent cells positive in β-galactosidase activity after treatment (in words) (BJ-11 cells; BJ-11, doxorubicin or palbociclib induced senescence, prevention and reversion, summary of Tables 7 and 8): reduced
